According to patent US8633243B2, “Forms of CDDO methyl ester” (priority 2007, dated 2014):
Marks after values point to notes of the source that are not given here.

Legend:
[1] = Stress experiments (physical stability under temperature, humidity, grinding; XRPD after stress); type: physicochemical; settings: for KF Result after stress: Karl Fischer water; for weight loss under stress: 3 days
Method: A solid sample was placed into a stainless steel milling rotor with a small metal ball. […] The sample was then ground at 30 Hz on a Retesh type MM220 mixermill for approximately 20 minutes. The resulting solids were isolated and analyzed.
A solid sample was placed into a stainless steel grinding jar with a grinding rod. The sample was then ground at 15 Hz on a SPEX Certiprep model 6750 cryomill for a set amount of time. The grinding jar was submerged in a bath of liquid nitrogen during the experiment. The solids were isolated and analyzed.
Solids were stressed under different temperature and/or relative humidity (RH) environments for a measured time period. Specific RH values were achieved by placing the samples inside sealed chambers containing saturated salt solutions or inside ESPEC temperature and humidity cabinets. The salt solutions were selected and prepared following an ASTM standard procedure. Samples were analyzed by XRPD immediately after removal from the stress environment. […]

[2] = cynomolgus monkey, in vivo, po, 4.1 mg/kg
[3] = Hygroscopicity (dynamic vapor sorption/desorption); type: physicochemical
Method: Moisture sorption/desorption data were collected on a VTI SGA-100 Vapor Sorption Analyzer. Sorption and desorption data were collected over a range of 5% to 95% relative humidity (RH) at 10% RH intervals under a nitrogen purge. Samples were not dried prior to analysis. Equilibrium criteria used for analysis were less than 0.010% weight change in 5 minutes, with a maximum equilibration time of 3 hours if the weight criterion was not met. Data were not corrected for the initial moisture content of the samples. Sodium chloride and polyvinypyrrolidine were used as calibration standards.

[4] = Phases 2 and 3: single oral administration of CDDO-methyl ester capsule formulations, concentrations by HPLC-MS/MS; type: in vivo, Cynomolgus monkeys, Macaca fascicularis; settings: phases 2 and 3, PO capsule 10 mg/kg; compared with the micronized and nanocrystalline Form A formulations
Method: An aqueous suspension of nanocrystalline CDDO-Me was produced, starting from a sample of micronized Form A material. A Retsch® Planatory Ball Mill model PM 400, containing zirconia balls of 2 mm average size, was charged with 25 gm of micronized CDDO-Me (average particle size distribution of 6.1 uM), 5 gm of docusate sodium, 1 gm of Tween 80, and 68.3 gm of water. Grinding was initiated at approximately 400 RPM and was continued for 2 hours. A particle size distribution (PSD) determination using a laser light granulometer indicated an average PSD of 0.37 μM was obtained. To this thick suspension were added 1 gm of microcrystalline cellulose and 0.2 gm of […] gum, with brief mixing, and the suspension was stored refrigerated. […] The table below presents the quantitative composition of both formulations. […] The quantitative composition of each formulation appears below. […] Serial blood samples (approximately 1 mL) were removed from the femoral vein or artery of each animal and transferred into tubes containing K2-EDTA at each of the following time points (actual times were recorded): All samples were thoroughly mixed following collection and placed on wet ice, prior to being refrigerated at approximately 4° C. CDDO-methyl ester concentrations in blood were analysed by HPLC-MS/MS.

[5] = 25° C./75% RH, 28 d, micronized
[6] = 40° C./48% RH, 28 d, micronized
[7] = 60° C./23% RH, 28 d, micronized

SMILES	XRPD RESULT after stress [1, 5]	KF Result after stress [1, 5]	XRPD RESULT after stress [1, 6]	KF Result after stress [1, 6]	XRPD RESULT after stress [1, 7]	KF Result after stress [1, 7]	XRPD RESULT after stress ([1]; 80° C./P2O5, 28 d, micronized)	KF Result after stress ([1]; 80° C./P2O5, 28 d, micronized)	AUC, Mean [2]	AUC, Median [2]	AUC, Range (min-max) [2]	hygroscopicity [3]	other results
COC(=O)[C@]12CCC(C)(C)C[C@H]1[C@H]1C(=O)C=C3[C@@]4(C)C=C(C#N)C(=O)C(C)(C)[C@@H]4CC[C@@]3(C)[C@]1(C)CC2 [FORM B PRODUCED BY ISOLATION FROM ETHYL ACETATE AND ETHANOL ]	Form B	0.58%	Form B	0.39%	~50% Form A +	0.02%	100% Form A	0.37%					form after stress testing (summary of Table 15) ([1]; 28 days of storage, Form A seen at 60° C. and above): formation of Form A
COC(=O)[C@]12CCC(C)(C)C[C@H]1[C@H]1C(=O)C=C3[C@@]4(C)C=C(C#N)C(=O)C(C)(C)[C@@H]4CC[C@@]3(C)[C@]1(C)CC2 [FORM B PRODUCED VIA EXAMPLE 11 PROCEDURE]	Form B	0.77%	Form B	0.00^b	Form B	0.04%	Form B	1.1%					XRPD RESULT after stress ([1]; 25° C./75% RH, 14 d, micronized): Form B; XRPD RESULT after stress ([1]; 80° C./P2O5, 14 d, micronized): Form B
COC(=O)C12CCC(C)(C)CC1C1C(=O)C=C3C4(C)C=C(C#N)C(=O)C(C)(C)C4CCC3(C)C1(C)CC2 (stereo not shown) [Form A, methyl 2-cyano-3,12-dioxoleana-1,9(11)-dien-28-oate]									40.4 ng·h/mL	37.4 ng·h/mL	21 to 60.4 ng·h/mL	not hygroscopic	weight loss under stress ([1]; 25° C./60% RH): 3 days: 1.5% loss; XRPD RESULT after stress ([1]; 25° C./60% RH, 7 days): remained Form A; weight loss under stress ([1]; 40° C./75% RH): 3 days: 1.4% loss; XRPD RESULT after stress ([1]; 40° C./75% RH, 7 days): remained Form A; XRPD RESULT after stress ([1]; 20 min grind, dry (ball mill)): remained Form A; XRPD RESULT after stress ([1]; 20 min wet grind, water (ball mill)): remained Form A; MB / DVS weight change ([3]; 5% to 95% RH sorption/desorption): Negligible weight change throughout experiment; Post MB XRPD ([3]; material after DVS experiment): Form A
COC(=O)C12CCC(C)(C)CC1C1C(=O)C=C3C4(C)C=C(C#N)C(=O)C(C)(C)C4CCC3(C)C1(C)CC2 (stereo not shown) [Form B, methyl 2-cyano-3,12-dioxoleana-1,9(11)-dien-28-oate]									177.2 ng·h/mL	175.0 ng·h/mL	158 to 228 ng·h/mL	not hygroscopic	XRPD RESULT after stress ([1]; 22° C./97% RH, 7 days): remained Form B; XRPD RESULT after stress ([1]; 40° C./75% RH, 8 days): remained Form B; XRPD RESULT after stress ([1]; 80° C./0% RH, ~24 hours): remained Form B; XRPD RESULT after stress ([1]; 195° C., 5 minutes, ambient RH (74% RH)): remained Form B; XRPD RESULT after stress ([1]; 200° C., 60 minutes, ambient RH (74% RH), min = minor): Form A plus minor Form B; form after cryogrinding ([1]; cryogrinding 1 hour): stable and does not change Form; bioavailability, comparison of formulations [4]: significantly better bioavailability; % Form B over Form A (AUC), Mean [2]: 439%; % Form B over Form A (AUC), Median [2]: 523%; % Form B over Form A (AUC), Range (min-max) [2]: 262-723%; median exposure greater than the equivalent dose of Form A [2]: approximately 520%
